According to patent EP4806912A1, “DUAL AGONIST COMPOUND” (Chengdu Aoda Biotechnology Co., Ltd, priority 2023, dated 2025):

Key:
GLP-1R = target: T1, GLP-1R (Homo sapiens, UniProt P43220); test: GLP-1 activity test (cAMP, chemiluminescence, CHO-K1 cell line stably expressing GLP-1R); type: cell-based; conditions: relative luminescence units, read-out: GLP-1 activity [EC50(pmol)]
T1 construct: expressed in transfected cells; host or cells: CHO-K1
Description: (§1) Upon stimulation by a specific agonist, GLP-1R activates the intracellular adenylate cyclase signaling pathway, resulting in an increase in cAMP levels and ultimately leading to insulin production and secretion. A cell line stably transfected with GLP-1R was stimulated with test compounds, thereby rapidly increasing intracellular cAMP levels. The relative luminescence units (RLU) of cells stimulated at various concentrations were measured by a chemiluminescence method, and the EC50 value of the agonist was calculated accordingly. This activity test method is currently a commonly used method for evaluating GLP-1 receptor agonist activity both domestically and internationally.
A CHO-K1 cell line stably expressing GLP-1R was used. The stable cells were stimulated with agonists at different concentrations, and the relative luminescence units after stimulation at each concentration were measured to calculate the EC50 value of the agonist.

[1] = Preliminary pharmacokinetic evaluation in cynomolgus monkeys (plasma, LC-MS); type: in vivo; conditions: for half-life: cynomolgus monkey, male cynomolgus monkeys, subcutaneously (SC), 0.2 mg/kg, plasma; for half-lives: cynomolgus monkeys, administered subcutaneously
Description: Among the above compounds, the principle of modification for long-acting was essentially the same.
The test animals were male cynomolgus monkeys. Two animals were used for each compound. The compounds were administered subcutaneously at a dose of 0.2 mg/kg. Blood samples were collected via intravenous sampling prior to administration (0 h) and at 1 h, 2 h, 3 h, 4 h, 8 h, 12 h, 18 h, 24 h, 48 h, 96 h, 144 h, and 168 h after administration. Plasma samples were obtained by centrifugation. The plasma concentrations of the compounds were respectively determined by liquid chromatography - mass spectrometry (LC-MS).

GCG-R = target: T2, GCG-R (Homo sapiens, UniProt P47871); test: GCG activity test (cAMP, chemiluminescence, CHO-K1 cell line stably expressing GCG-R); type: cell-based; conditions: relative luminescence units, read-out: GCG activity [EC50(nmol)]
T2 construct: expressed in transfected cells; host or cells: CHO-K1
T2 sequence (P47871 26-477, species assumed): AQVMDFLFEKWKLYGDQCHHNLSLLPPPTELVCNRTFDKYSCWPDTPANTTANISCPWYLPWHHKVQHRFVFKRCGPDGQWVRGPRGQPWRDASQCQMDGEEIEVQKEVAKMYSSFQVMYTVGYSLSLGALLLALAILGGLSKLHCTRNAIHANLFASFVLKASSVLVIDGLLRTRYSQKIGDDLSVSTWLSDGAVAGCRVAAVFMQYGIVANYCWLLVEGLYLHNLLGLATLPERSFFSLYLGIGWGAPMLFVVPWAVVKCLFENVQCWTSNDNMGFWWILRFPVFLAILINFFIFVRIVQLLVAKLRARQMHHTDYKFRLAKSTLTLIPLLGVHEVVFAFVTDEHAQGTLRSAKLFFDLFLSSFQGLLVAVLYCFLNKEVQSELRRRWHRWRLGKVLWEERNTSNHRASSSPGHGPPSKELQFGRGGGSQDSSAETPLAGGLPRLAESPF
Description: as §1, with “agonist, GCG-R” for “agonist, GLP-1R”, “with GCG-R” for “with GLP-1R”, “activity assay” for “activity test”, “evaluating GCG” for “evaluating GLP-1”
A CHO-K1 cell line stably expressing GCG-R was used. The stable cells were stimulated with agonists at different concentrations, and the relative luminescence units after stimulation at each concentration were measured to calculate the EC50 value of the agonist.

T1 sequence (P43220 24-463, species assumed): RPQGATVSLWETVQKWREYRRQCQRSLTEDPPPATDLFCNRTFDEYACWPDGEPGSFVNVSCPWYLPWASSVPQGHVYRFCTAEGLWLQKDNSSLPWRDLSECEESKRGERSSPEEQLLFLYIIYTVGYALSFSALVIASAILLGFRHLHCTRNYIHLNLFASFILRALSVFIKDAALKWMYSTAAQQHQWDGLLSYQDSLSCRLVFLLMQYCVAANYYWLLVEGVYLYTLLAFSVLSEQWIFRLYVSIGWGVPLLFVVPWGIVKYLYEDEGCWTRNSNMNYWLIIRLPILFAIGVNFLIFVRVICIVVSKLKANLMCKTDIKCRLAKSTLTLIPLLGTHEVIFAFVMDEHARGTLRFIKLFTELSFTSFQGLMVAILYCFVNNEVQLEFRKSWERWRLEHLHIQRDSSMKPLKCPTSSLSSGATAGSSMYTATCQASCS

Compound	EC50 (GLP-1R) [nM]	half-life [1] [days]	half-lives [1]	EC50 (GCG-R) [nM]
CC(C)C[C@H](NC(=O)[C@H](CC(C)C)NC(=O)[C@H](Cc1c[nH]c2ccccc12)NC(=O)[C@H](CCC(=O)O)NC(=O)[C@@H](NC(=O)[C@H](Cc1ccccc1)NC(=O)[C@H](CCC(=O)O)NC(=O)[C@H](CCCCNC(=O)COCCOCCOCCOCCOCCNC(=O)CCC[C@H](NC(=O)CCCCCCCCCCCCCCCCCCC(=O)O)C(=O)O)NC(=O)[C@H](C)NC(=O)[C@H](CCCCN)NC(=O)[C@H](CCCCN)NC(=O)[C@H](CCC(=O)O)NC(=O)[C@H](CC(=O)O)NC(=O)[C@H](CC(C)C)NC(=O)[C@H](Cc1ccc(O)cc1)NC(=O)[C@H](CCCCN)NC(=O)[C@H](CO)NC(=O)[C@H](Cc1ccc(O)cc1)NC(=O)[C@H](CC(=O)O)NC(=O)[C@H](CO)NC(=O)[C@@H](NC(=O)C(C)(Cc1ccccc1)NC(=O)[C@@H](NC(=O)CNC(=O)[C@H](CCC(N)=O)NC(=O)C(C)(C)NC(=O)[C@@H](N)Cc1c[nH]cn1)[C@@H](C)O)[C@@H](C)O)C(C)C)C(=O)N[C@@H](CCC(=O)O)C(=O)NCCCCC(=O)N1CCC[C@H]1C(=O)N[C@@H](CO)C(=O)N[C@@H](CO)C(=O)NCC(=O)N[C@@H](C)C(=O)N1CCC[C@H]1C(=O)N1CCC[C@H]1C(=O)N1CCC[C@H]1C(=O)N[C@@H](CO)C(N)=O (some centres unmarked) [Compound 6]	0.0809	5.19	greater than 100 hours	2.1
CC(C)C[C@H](NC(=O)[C@H](CC(C)C)NC(=O)[C@H](Cc1c[nH]c2ccccc12)NC(=O)[C@H](CCC(=O)O)NC(=O)[C@@H](NC(=O)[C@H](Cc1ccccc1)NC(=O)[C@H](CCC(=O)O)NC(=O)[C@H](CCCCNC(=O)COCCOCCOCCOCCOCCNC(=O)CCC[C@H](NC(=O)CCCCCCCCCCCCCCCCCCC(=O)O)C(=O)O)NC(=O)[C@H](C)NC(=O)[C@H](CCCCN)NC(=O)[C@H](CCCCN)NC(=O)[C@H](CCC(=O)O)NC(=O)[C@H](CC(=O)O)NC(=O)[C@H](CC(C)C)NC(=O)[C@H](Cc1ccc(O)cc1)NC(=O)[C@H](CCCCN)NC(=O)[C@H](CO)NC(=O)[C@H](Cc1ccc(O)cc1)NC(=O)[C@H](CC(=O)O)NC(=O)[C@H](CO)NC(=O)[C@@H](NC(=O)C(C)(Cc1ccccc1F)NC(=O)[C@@H](NC(=O)CNC(=O)[C@H](CCC(N)=O)NC(=O)C(C)(C)NC(=O)[C@@H](N)Cc1c[nH]cn1)[C@@H](C)O)[C@@H](C)O)C(C)C)C(=O)N[C@@H](CCC(=O)O)C(=O)NCCCCC(=O)N1CCC[C@H]1C(=O)N[C@@H](CO)C(=O)N[C@@H](CO)C(=O)NCC(=O)N[C@@H](C)C(=O)N1CCC[C@H]1C(=O)N1CCC[C@H]1C(=O)N1CCC[C@H]1C(=O)N[C@@H](CO)C(N)=O (some centres unmarked) [Compound 10]	0.0755	5.67	greater than 100 hours	1.2
